These results are taken from PubChem BioAssay (NCI).

Common to all, as to assay: growth of human tumour cells (NCI), 48 h
In assay [1] the test system is MALME-3M melanoma.
For assay [2], the system named is MDA-MB-231 breast.
The test system of assay [3] is A549 NSCLC.
The test system of assay [4] is HCT-116 colon.
Assay [5] relates to CCRF-CEM leukemia.
For assay [6], the system named is BT-549 breast.
For assay [7], the system named is RXF 393 renal.
Assay [8] has as its system K-562 leukemia.
Assay [9] concerns COLO 205 colon.
Assay [10] relates to UACC-62 melanoma.

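Each compound was tested at five concentrations against cells in 96-well plates for 48 hours. At the GI50, growth is halved. TGI is the concentration that stops growth completely.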 Where only a bound is given, the exact number is not on record here.

Turning to `CCOC(=O)C1=C(C)N(Cc2ccc(Cl)cc2Cl)[C@]2(C#N)C(O)=C(Cl)C(Cl)=C(O)[C@]12C#N`, the GI50 was over 100 µM in assay [1]; 26.7 µM in assay [2]; over 100 µM in assay [3]; 34.7 µM in assay [4]; 18.4 µM in assay [5]; 21.1 µM in assay [6]. Also, the GI50 in assay [7] was 30.6 µM; in assay [8], 28.1 µM; in assay [9], over 100 µM. Further, the TGI is over 100 µM in assay [1]; 98.9 µM in assay [2]; over 100 µM in assay [3]; over 100 µM in [4]; 37.3 µM in [5]; over 100 µM in assay [6]. In addition, the figures for the TGI in assay [7], in [8] and in [9] were 89.1 µM, 57.5 µM and over 100 µM, respectively.
On to `COc1cc2c3c(n(CCCN4CCSCC4)c(=O)c2cc1OC)-c1cc2c(cc1C3=O)OCO2`, for which the GI50 in [1] is 67.5 µM; in assay [2], 25.2 µM; in [3] it was over 100 µM; in [10] it was 37.5 µM; in [4], 73.1 µM; in [6] it was 56.7 µM. Moreover, the GI50 was 27.3 µM in [7], 20.2 µM in assay [8] and over 100 µM in assay [9]. Further, the TGI in assay [1] is over 100 µM; in [2] it was 89.9 µM; in assay [3], over 100 µM; in [10], over 100 µM; in [4] it was over 100 µM; in assay [6] it was over 100 µM. Moreover, the TGI was 67.8 µM in assay [7], 47.8 µM in assay [8] and over 100 µM in assay [9].
As for `O=C(Nc1nc2c(s1)CCc1c-2c(Br)n(Cc2ccccc2)c1Br)c1ccccc1`, the GI50 is 2.57 µM in [1]; 2.16 µM in assay [2]; 3.12 µM in assay [3]; 4.66 µM in assay [10]; 3.98 µM in assay [4]; 2.53 µM in assay [6]. Moreover, the GI50 in assay [7] was 2.01 µM; in assay [8], 22.9 µM; in assay [9], 8.05 µM. Besides, the TGI is 10.2 µM in [1]; 32.6 µM in assay [2]; 23.1 µM in [3]; over 100 µM in assay [10]; over 100 µM in assay [4]; 8.01 µM in [6]. For the same compound, the TGI in [7] was 7.69 µM; in assay [8], over 100 µM; in [9], over 100 µM.
Take `CCOC(=O)c1cc2cc(OCc3ccccc3)ccc2[nH]1`: the GI50 in assay [1] was over 100 µM; in assay [2], 49.2 µM; in [3], over 100 µM; in assay [10] it was over 100 µM; in [4], over 100 µM; in assay [5], over 100 µM. The GI50 in assay [6], in assay [7] and in assay [9] was over 100 µM in each case. The TGI in assay [1], in assay [2], in assay [3], in assay [10], in assay [4] and in assay [5] was over 100 µM each time. For the same compound, the TGI in [6], in assay [7] and in assay [9] was over 100 µM in each case.
On to `CN1CCOCCOCCOc2ccccc2NC(=O)c2nc(cnc2N)-c2ccc(cc2)S1(=O)=O`, for which the GI50 is over 100 µM in [1], 32.4 µM in assay [2], 7.77 µM in assay [6] and 1.59 µM in assay [7]. In addition, the TGI in [1] was over 100 µM; in [2], over 100 µM; in [6], over 100 µM; in assay [7] it was 21.9 µM.
`O=C(/C=C/c1cccc(Oc2ccc(Cl)cc2)c1)c1ccccc1`: the GI50 is 38.3 µM in assay [1]; 29.1 µM in assay [2]; 138 µM in assay [3]; 26.8 µM in assay [10]; 20.6 µM in assay [4]; 31.6 µM in [5]. For the same compound, the GI50 in assay [6] was 31.6 µM; in assay [7], 44.2 µM; in [9], 63.4 µM. Moreover, the TGI in assay [1] was 175 µM; in assay [2] it was 89 µM; in assay [3] it was 298 µM; in assay [10] it was 77 µM; in [4], 41.7 µM; in assay [5] it was 384 µM. Moreover, the TGI in assay [6] worked out at 97.5 µM; in assay [7], 152 µM; in [9] it was 283 µM.
Consider `O=C(Nc1ccc(Br)cc1)Nc1cccc(Br)c1`, for which the GI50 is 8.69 µM in assay [1]; 30.5 µM in assay [2]; over 100 µM in assay [6]; over 100 µM in assay [7]; 4.1 µM in [9]. For the same compound, the TGI in assay [1], in assay [2], in assay [6], in [7] and in assay [9] was over 100 µM in each case.
